In assay [1] the test system is Bacillus cereus. Briefly: Antibacterial activity against Bacillus cereus MTCC 8372 assessed as concentration required to completely destroy test microorganisms after 24 hrs. The class given is functional. Particulars: MTCC 8372, 24 h.
Assay [2] in a line: Inhibition of alpha-glucosidase (unknown origin) using p-nitrophenol glycoside as substrate after 30 mins by colorimetric analysis. The arrangement: species or system Homo sapiens.
Assay [3] concerns Bacillus cereus. Briefly: Antibacterial activity against Bacillus cereus MTCC 8372 at 100 ug/ml after 24 hrs by disc diffusion method. Conditions: MTCC 8372, 24 h, read-out: IZ. The class given is functional. (In general: Agar diffusion results depend on both activity and mobility in agar.)
Assay [4] has as its system Aspergillus niger. As to the kind of experiment: Antifungal activity against Aspergillus niger MTCC 281 after 48 hrs by microdilution method. Type of assay: functional. (In broth dilution the organism is exposed to a series of concentrations in liquid medium.)
Assay [5] deals with Staphylococcus aureus. Briefly: Antibacterial activity against Staphylococcus aureus MTCC 96 at 100 ug/ml after 24 hrs by disc diffusion method. Type of assay: functional. Particulars: MTCC 96, 24 h, read-out: IZ.
For assay [6], the system named is Aspergillus niger. Briefly: Antifungal activity against Aspergillus niger MTCC 281 assessed as concentration required to completely destroy test microorganisms after 24 hrs. The class given is functional.
Another assay deals with T1, Alpha amylase (Homo sapiens, UniProt P0DUB6).
T1 sequence (P0DUB6 whole entry): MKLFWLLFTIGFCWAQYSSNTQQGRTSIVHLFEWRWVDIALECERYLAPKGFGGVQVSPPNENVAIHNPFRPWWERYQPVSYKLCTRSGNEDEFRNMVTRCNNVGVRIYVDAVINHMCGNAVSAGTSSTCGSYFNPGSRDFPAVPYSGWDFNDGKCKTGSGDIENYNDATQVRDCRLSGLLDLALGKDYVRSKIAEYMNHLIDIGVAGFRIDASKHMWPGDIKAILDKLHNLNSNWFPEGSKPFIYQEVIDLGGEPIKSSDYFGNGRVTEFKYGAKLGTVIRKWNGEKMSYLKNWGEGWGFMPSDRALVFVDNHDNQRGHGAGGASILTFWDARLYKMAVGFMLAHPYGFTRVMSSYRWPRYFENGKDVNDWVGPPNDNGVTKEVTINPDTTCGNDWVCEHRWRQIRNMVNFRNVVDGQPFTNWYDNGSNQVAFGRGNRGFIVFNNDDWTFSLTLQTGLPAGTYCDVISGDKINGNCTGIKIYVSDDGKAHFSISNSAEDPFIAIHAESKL
As to the kind of experiment: Inhibition of alpha-amylase (unknown origin) using starch as substrate after 30 mins by spectrophotometer analysis.

Assay [7] relates to Klebsiella pneumoniae. Briefly: Antibacterial activity against Klebsiella pneumoniae MTCC 3384 assessed as concentration required to completely destroy test microorganisms after 24 hrs. Type of assay: functional. Particulars: MTCC 3384, 24 h.
Assay [8] relates to Aspergillus niger. As to the kind of experiment: Antifungal activity against Aspergillus niger MTCC 281 at 100 ug/ml after 24 hrs by disc diffusion method. Type of assay: functional. Conditions: MTCC 281, 24 h, read-out: IZ.
The subject of assay [9] is Aspergillus flavus. As to the kind of experiment: Antifungal activity against Aspergillus flavus MTCC 873 after 48 hrs by microdilution method. Type of assay: functional.
For assay [10], the system named is Staphylococcus aureus. As to the kind of experiment: Antibacterial activity against Staphylococcus aureus MTCC 96 after 24 hrs by microdilution method. Type of assay: functional. Conditions: MTCC 96, 24 h.
In assay [11] the test system is Klebsiella pneumoniae. As to the kind of experiment: Antibacterial activity against Klebsiella pneumoniae MTCC 3384 after 24 hrs by microdilution method. Particulars: MTCC 3384, 24 h. The class given is functional.
Assay [12] concerns Staphylococcus aureus. Briefly: Antibacterial activity against Staphylococcus aureus MTCC 96 at 50 ug/ml after 24 hrs by disc diffusion method. The class given is functional. Conditions: MTCC 96, 24 h, read-out: IZ.
In assay [13] the test system is Aspergillus flavus. As to the kind of experiment: Antifungal activity against Aspergillus flavus MTCC 873 assessed as concentration required to completely destroy test microorganisms after 24 hrs. Type of assay: functional.
Assay [14] deals with Aspergillus niger. As to the kind of experiment: Antifungal activity against Aspergillus niger MTCC 281 at 50 ug/ml after 24 hrs by disc diffusion method. Type of assay: functional. Conditions: MTCC 281, 24 h, read-out: IZ.
For assay [15], the system named is Aspergillus flavus. Briefly: Antifungal activity against Aspergillus flavus MTCC 873 at 50 ug/ml after 24 hrs by disc diffusion method. Type of assay: functional. Conditions: for zone of inhibition at 50 µg/mL: MTCC 873, 24 h, read-out: IZ.
Assay [16] concerns Bacillus cereus. As to the kind of experiment: Antibacterial activity against Bacillus cereus MTCC 8372 after 24 hrs by microdilution method. Type of assay: functional. Conditions: MTCC 8372, 24 h.
For assay [17], the system named is Staphylococcus aureus. Briefly: Antibacterial activity against Staphylococcus aureus MTCC 96 assessed as concentration required to completely destroy test microorganisms after 24 hrs. Type of assay: functional. Conditions: MTCC 96, 24 h.
Assay [18] deals with Escherichia coli. As to the kind of experiment: Antibacterial activity against Escherichia coli MTCC 724 at 50 ug/ml after 24 hrs by disc diffusion method. Type of assay: functional. Particulars: MTCC 724, 24 h, read-out: IZ.
Assay [19] has as its system Aspergillus flavus. As to the kind of experiment: Antifungal activity against Aspergillus flavus MTCC 873 at 100 ug/ml after 24 hrs by disc diffusion method. The class given is functional. Conditions: for zone of inhibition at 100 µg/mL: MTCC 873, 24 h, read-out: IZ.
Assay [20] has as its system Klebsiella pneumoniae. Briefly: Antibacterial activity against Klebsiella pneumoniae MTCC 3384 at 100 ug/ml after 24 hrs by disc diffusion method. Type of assay: functional. Conditions: MTCC 3384, 24 h, read-out: IZ.
Assay [21] has as its system Escherichia coli. Briefly: Antibacterial activity against Escherichia coli MTCC 724 at 100 ug/ml after 24 hrs by disc diffusion method. The class given is functional. Conditions: MTCC 724, 24 h, read-out: IZ.
Assay [22] relates to Klebsiella pneumoniae. As to the kind of experiment: Antibacterial activity against Klebsiella pneumoniae MTCC 3384 at 50 ug/ml after 24 hrs by disc diffusion method. The class given is functional. Conditions: MTCC 3384, 24 h, read-out: IZ.
The subject of assay [23] is Escherichia coli. Briefly: Antibacterial activity against Escherichia coli MTCC 724 assessed as concentration required to completely destroy test microorganisms after 24 hrs. Type of assay: functional. Conditions: MTCC 724, 24 h.
Assay [24] has as its system Escherichia coli. Briefly: Antibacterial activity against Escherichia coli MTCC 724 after 24 hrs by microdilution method. The class given is functional. Particulars: MTCC 724, 24 h.
Assay [25] relates to Bacillus cereus. As to the kind of experiment: Antibacterial activity against Bacillus cereus MTCC 8372 at 50 ug/ml after 24 hrs by disc diffusion method. Type of assay: functional. Particulars: MTCC 8372, 24 h, read-out: IZ.

Converted amounts (≈) assume the structure as drawn.

Usually MBC stands for the smallest concentration meeting the test's criterion for killing. One may read the IC50 as the concentration needed to halve the response being measured. Read a high IC50 as a need for much substance. The term MIC denotes the smallest concentration in the dilution series that meets the test's criterion for growth inhibition. A higher MIC goes with weaker potency. In general, MFC refers to the lowest tested concentration that kills the fungus rather than only halting it.

As to `CCOC(=O)c1c(-c2ccccc2)nn(-c2ccccc2)c1Cn1c(Cl)nc2ccccc21`, the MBC came to 220 µg/mL (≈ 481 µM) with Bacillus cereus [1], 190 µg/mL (≈ 416 µM) with Klebsiella pneumoniae [7], 160 µg/mL (≈ 350 µM) in the assay with Staphylococcus aureus [17] and 190 µg/mL (≈ 416 µM) in the assay on Escherichia coli [23]. The IC50 in assay [2] was found to be 20 µg/mL (≈ 43.8 µM); against Alpha amylase it was 10 µg/mL (≈ 21.9 µM). The zone of inhibition at 100 µg/mL amounted to 14 mm in the assay with Bacillus cereus [3]; 11 mm in the assay with Staphylococcus aureus [5]; 10 mm in the assay with Aspergillus niger [8]; 9 mm in the assay with Aspergillus flavus [19]; 12 mm in the assay with Klebsiella pneumoniae [20]; 19 mm in the assay on Escherichia coli [21]. Further, the MIC with Aspergillus niger [4] (MTCC 281, 48 h) came to 25 µg/mL (≈ 54.7 µM); with Aspergillus flavus [9] (MTCC 873, 48 h) it was 30 µg/mL (≈ 65.7 µM); with Staphylococcus aureus [10], 30 µg/mL (≈ 65.7 µM); with Klebsiella pneumoniae [11], 30 µg/mL (≈ 65.7 µM); against Bacillus cereus [16], 35 µg/mL (≈ 76.6 µM); in the assay on Escherichia coli [24], 35 µg/mL (≈ 76.6 µM). The MFC in the assay with Aspergillus niger [6] (MTCC 281, 24 h) was 215 µg/mL (≈ 471 µM); in the assay on Aspergillus flavus [13] (MTCC 873, 24 h) it was 230 µg/mL (≈ 503 µM). Also, the zone of inhibition at 50 µg/mL in the assay with Staphylococcus aureus [12] was found to be 9 mm; in the assay with Aspergillus niger [14], 10 mm; in the assay with Aspergillus flavus [15], 8 mm; with Escherichia coli [18] it was 9 mm; with Klebsiella pneumoniae [22] it was 6 mm; in the assay on Bacillus cereus [25], 6 mm.

In the case of `CCOC(=O)c1c(-c2ccccc2)nn(-c2ccccc2)c1COc1ccccc1C=O`, the MBC worked out at 250 µg/mL (≈ 586 µM) in the assay on Bacillus cereus [1], 260 µg/mL (≈ 610 µM) with Klebsiella pneumoniae [7], 220 µg/mL (≈ 516 µM) in the assay with Staphylococcus aureus [17] and 250 µg/mL (≈ 586 µM) in the assay on Escherichia coli [23]. In addition, the IC50 (in assay [2]; against Alpha amylase) was 40 µg/mL (≈ 93.8 µM) in each case. Moreover, the zone of inhibition at 100 µg/mL with Bacillus cereus [3] was 16 mm; in the assay on Staphylococcus aureus [5], 12 mm; in the assay on Aspergillus niger [8], 10 mm; in the assay on Aspergillus flavus [19] it was 5 mm; in the assay with Klebsiella pneumoniae [20] it was 9 mm; in the assay on Escherichia coli [21], 8 mm. Besides, the MIC turned out to be 50 µg/mL (≈ 117 µM) in the assay with Aspergillus niger [4] (MTCC 281, 48 h); 50 µg/mL (≈ 117 µM) with Aspergillus flavus [9] (MTCC 873, 48 h); 55 µg/mL (≈ 129 µM) in the assay with Staphylococcus aureus [10]; 85 µg/mL (≈ 199 µM) against Klebsiella pneumoniae [11]; 45 µg/mL (≈ 106 µM) in the assay with Bacillus cereus [16]; 65 µg/mL (≈ 152 µM) against Escherichia coli [24]. Also, the MFC with Aspergillus niger [6] (MTCC 281, 24 h) was found to be 225 µg/mL (≈ 528 µM); with Aspergillus flavus [13] (MTCC 873, 24 h) it was 270 µg/mL (≈ 633 µM). Moreover, the zone of inhibition at 50 µg/mL in the assay with Staphylococcus aureus [12] stood at 2 mm; in the assay on Aspergillus niger [14], 10 mm; with Aspergillus flavus [15], 10 mm; in the assay on Escherichia coli [18] it was 3 mm; with Klebsiella pneumoniae [22] it was 6 mm; in the assay on Bacillus cereus [25], 4 mm.

As for NYSTATIN, the MIC in the assay on Aspergillus niger [4] was 10 µg/mL; with Aspergillus flavus [9], 8 µg/mL. For the same molecule, the MFC in the assay with Aspergillus niger [6] and with Aspergillus flavus [13] was 100 µg/mL each time. Besides, the inhibition zone (IZ) in the assay on Aspergillus flavus [15] came out at 16 mm; in the assay with Aspergillus flavus [19], 20 mm.

With `CN(C)[C@@H]1C(O)=C(C(N)=O)C(=O)[C@@]2(O)C(O)=C3C(=O)c4c(O)cccc4[C@@](C)(O)[C@H]3C[C@@H]12` [TETRACYCLINE], the MBC in the assay on Bacillus cereus [1], with Klebsiella pneumoniae [7], in the assay with Staphylococcus aureus [17] and in the assay on Escherichia coli [23] was 120 µg/mL (≈ 270 µM) in each case. Besides, the zone of inhibition at 100 µg/mL in the assay on Bacillus cereus [3] came to 22 mm; with Staphylococcus aureus [5] it was 20 mm; with Klebsiella pneumoniae [20], 20 mm; with Escherichia coli [21], 30 mm. Moreover, the MIC was 10 µg/mL (≈ 22.5 µM) against Staphylococcus aureus [10], 8 µg/mL (≈ 18 µM) against Klebsiella pneumoniae [11], 4 µg/mL (≈ 9 µM) against Bacillus cereus [16] and 12 µg/mL (≈ 27 µM) with Escherichia coli [24]. The zone of inhibition at 50 µg/mL was determined as 10 mm with Staphylococcus aureus [12], 18 mm in the assay on Escherichia coli [18], 12 mm with Klebsiella pneumoniae [22] and 10 mm with Bacillus cereus [25].

The record behind these values is ChEMBL document CHEMBL3603774, “Novel 5-functionalized-pyrazoles: Synthesis, characterization and pharmacological screening” (Bioorg Med Chem Lett, 2015).
